Assay: Pharmacokinetic testing of olopatadine 0.6% nasal spray in clinical trials (plasma level by HPLC)
Assay type: in vivo
Details: human subjects, formulation containing 0.6% olopatadine, two sprays/nostril twice per day, intranasal

- time post-dose at which peak plasma concentration was measured: 0.5 to 2 h
- peak plasma concentration of olopatadine (C.), observed range (plasma, high performance liquid chromatography): 14.4 to 35.3 ng/mL
- peak plasma concentration of olopatadine (C.), mean (plasma, mean +/- spread): 23.3 ± 6.1 ng/mL
Compound: CN(C)CC/C=C1/c2ccccc2COc2ccc(CC(=O)O)cc21 [olopatadine, Z-11-(3-dimethylaminopropylidene)-6,11-dihydrodibenz[b,e]oxepine-2-acetic acid]

From US20140227326A1, “METHOD OF DELIVERING NASAL SPRAY” (priority 2004, published 2014)
